# In US20060264330A1, “Agricultural agents containing copolymers” (priority 2003, published 2006):
# Counter-ions that a name gives are not always drawn.
# Columns and labels:
# Type in all cases: in vivo
# [1] = system: Solanum nigrum L.; experiment: 14C-glyphosate foliar uptake by scintillation measurement; conditions: 14C-glyphosate-IPA 20 mM (aq), adjuvant 0.25%
# Description: Determination of the foliar uptake of glyphosate with addition of the copolymers described
# ^14C-Glyphosate Experiment
# ^14C-glyphosate-IPA at a concentration of 20 mM (aq) (corresponds to 665 g of ae/ha at a spray volume of 200 l/ha) was treated with 0.25% of the copolymers described. Using this mixture, the foliar uptake into the genus Solanum nigrum L. was determined by means of scintillation measurement. The effect of the copolymer on the uptake of the active ingredient via the leaf surface (foliar uptake) is described in the table which follows: […]
# [2] = system: wild buckwheat (POLCO); experiment: Bentazone experiment, photosynthetic activity by fluorescence measurement (Fpc); conditions: sodium salt of bentazone 60 g ai/ha, adjuvant 0.25%, 1 DAT; Fpc drops from 100 to 0 with destruction of the plant
# Description: (§1) The sodium salt of bentazone was applied as an aqueous solution with a concentration of 480 g/l. The application rate was 60 g of ai/ha. The mixture was applied to plants of the genus common lambsquarters (CHEAL) and wild buckwheat (POLCO). The adjuvants were added to the application solution at a concentration of 0.25%. The activity was determined by means of fluorescence measurement, where the factor Fpc is a measure of the photosynthetic activity. The destruction of the plant is associated with a drop in the Fpc value, starting from 100, down to 0.
# [3] = system: common lambsquarters (CHEAL); experiment: as above; conditions: sodium salt of bentazone 60 g ai/ha, adjuvant 0.25%, 1 DAT; Fpc drops from 100 to 0 with destruction of the plant
# Description: as §1
# [4] = system: common lambsquarter (CHEAL); experiment: Nicosulforon experiment, plant fresh weight; conditions: nicosulforon 200 g of ai/ha, adjuvant 0.25%, 14 DAT; untreated = 100
# Description: (§2) Nicosulforon was applied as an aqueous solution with a concentration of 200 g of ai/ha. The adjuvants were added to the application solution at a concentration of 0.25%. The mixture was applied to plants of the genus velvetleaf (ABUTH), common lambsquarter (CHEAL) and common chickweed (STEME). The efficacy was determined by weighing the plant weight (fresh weight in g) 14 days post-application (14 DAT).
# [5] = system: common chickweed (STEME); experiment: Nicosulforon experiment, plant fresh weight; conditions: nicosulforon 200 g of ai/ha, adjuvant 0.25%, 14 DAT; untreated = 100
# Description: as §2
# [6] = system: velvetleaf (ABUTH); experiment: Nicosulforon experiment, plant fresh weight; conditions: nicosulforon 200 g of ai/ha, adjuvant 0.25%, 14 DAT; untreated = 100
# Description: as §2
compound,measurement,setting,value
"O=C(O)CNCP(=O)(O)O [glyphosate, N-phosphonomethylglycine]",Uptake (% of the amount of glyphosate applied),[1],48 % of the amount of glyphosate applied
CC(C)N1C(=O)c2ccccc2NS1(=O)=O [sodium salt of bentazone],Florescence Fpc POLCO,[2],46
same,Fluorescence Fpc CHEAL,[3],56
COc1cc(OC)nc(NC(=O)NS(=O)(=O)c2ncccc2C(=O)N(C)C)n1 [nicosulforon],FW (fresh weight) CHEAL,[4],88 g
same,FW (fresh weight) STEME,[5],63 g
same,FW (fresh weight) ABUTH,[6],90 g
